The source of these data is PubChem BioAssay (NCI).

Where “and” joins values, the source holds several entries; their conditions need not be identical. Equal values may be shown once.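 Tested at 5 concentrations; 48 h exposure; 96-well plates; endpoints linearly interpolated, else capped at highest concentration. GI50: concentration for 50% inhibition of growth. At the TGI there is no net growth.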 Where only a bound is given, the exact number is not on record here.

Assay in all cases: NCI-60 cell line screen, 48 h
For experiment [1], the system named is MCF7 breast.
The test system of experiment [2] is SK-MEL-2 melanoma.
Experiment [3] concerns SNB-19 CNS.
The test system of experiment [4] is SN12C renal.
The subject of experiment [5] is HCT-15 colon.
For experiment [6], the system named is RXF 393 renal.
In experiment [7] the test system is UO-31 renal.
Experiment [8] deals with A498 renal.
For experiment [9], the system named is CCRF-CEM leukemia.
In experiment [10] the test system is SK-OV-3 ovarian.

On to `Cc1ccc(-c2c3c(N)nc(-c4ccncc4)nc3nc3c2c(C)nn3-c2ccccc2)cc1`, for which the GI50 is 3.63 µM in experiment [1]; 13.7 µM in experiment [2]; greater than 37.5 µM in experiment [3]; 2.58 µM in [4]; 13.6 µM in [5]; 3.88 µM in experiment [6]. The GI50 in experiment [7] is greater than 37.5 µM; in [8], 5.81 µM; in [9], 12.6 µM; in [10], 3.41 µM. Moreover, the TGI in experiment [1] is 24.4 µM; in experiment [2] it was greater than 37.5 µM; in [3] it was greater than 37.5 µM; in [4] it was greater than 37.5 µM; in [5], greater than 37.5 µM; in experiment [6], 33 µM. Also, the TGI was greater than 37.5 µM in experiment [7], greater than 37.5 µM in [8], greater than 37.5 µM in experiment [9] and 10.2 µM in [10].

`CC[C@@]1(OC(=O)C(N)CCC(=O)O)C(=O)OCc2c1cc1n(c2=O)Cc2cc3ccccc3nc2-1` (some centres undefined): the TGI was greater than 100 µM in experiment [1]; 3.44 µM in experiment [2]; greater than 30.7 µM in experiment [3]; 1.34 µM in experiment [4]; greater than 100 µM in experiment [5]; 0.757 µM in experiment [6]. The TGI amounted to 0.746 µM in experiment [7], 0.965 µM in [8], 0.247 µM in [9] and 3.33 µM in [10].

As to `O=C1c2ccccc2C(=O)c2c(NCCNCCO)ccc(NCCNCCO)c21`, the GI50 in experiment [1] was 0.0479 µM and 0.0696 µM and 0.069 µM; in experiment [2], 2.22 µM and 2.7 µM and 2.09 µM; in experiment [3], 0.372 µM and 0.625 µM and 0.584 µM; in [4], 0.183 µM and 0.358 µM and 0.292 µM; in experiment [5], 10.1 µM and 14.8 µM and 11.2 µM; in experiment [6] it was 0.322 µM and 2.43 µM and 1.92 µM. In addition, the GI50 was 5.36 µM and 1.58 µM and 2.79 µM in experiment [7]; 0.193 µM and 1.37 µM and 0.565 µM in [8]; 0.156 µM and 0.461 µM and 0.264 µM in experiment [9]; 1.26 µM and 1.45 µM and 2.06 µM in [10]. Also, the TGI in [1] is 0.948 µM and 2.39 µM and 4.99 µM; in experiment [2], 5.79 µM and 16.7 µM and 3.77 µM; in experiment [3], 4.19 µM and 9.76 µM and 5.58 µM; in experiment [4], 4.57 µM and 12.5 µM and 9.84 µM; in [5] it was greater than 100 µM; in experiment [6], 2 µM and 10.8 µM and 7.68 µM. In addition, the TGI is 38.1 µM and 27.7 µM and 36.9 µM in experiment [7]; 1.11 µM and 7 µM and 3.61 µM in experiment [8]; 14.6 µM and 11.1 µM in experiment [9]; 11.5 µM and 9.32 µM and 11.8 µM in experiment [10].

Consider `O=C(CCCCCNC1=CC(=O)c2ccccc2C1=O)NCCC[Te]c1ccccc1`, for which the GI50 is 0.327 µM in [1]; 2.79 µM in experiment [2]; 1.64 µM in [3]; 0.331 µM in experiment [4]; 0.293 µM in experiment [5]; 1.54 µM in experiment [6]. For the same compound, the GI50 is 0.311 µM in [7], 0.302 µM in experiment [8], 0.251 µM in [9] and 0.487 µM in [10]. Besides, the TGI is 4.66 µM in [1]; 6.3 µM in experiment [2]; 9.65 µM in [3]; 1.56 µM in experiment [4]; 1.4 µM in experiment [5]; 4.11 µM in experiment [6]. For the same compound, the TGI in experiment [7] was determined as 1.3 µM; in experiment [8] it was 1.66 µM; in [9] it was 0.774 µM; in experiment [10] it was 1.85 µM.

On to `Nc1ncnc2c1nc(N)n2C1OC(CO)C(O)C1O` (centres undefined), for which the GI50 in experiment [1] is 0.389 µM; in [2] it was 0.72 µM; in experiment [3] it was 1.34 µM; in experiment [4], 0.418 µM; in experiment [5], 0.433 µM; in experiment [6], 1.45 µM. The GI50 is 0.295 µM in [7], 0.657 µM in [8], 1.3 µM in experiment [9] and 0.52 µM in experiment [10]. In addition, the TGI in experiment [1] worked out at 10.4 µM; in experiment [2], 2.92 µM; in experiment [3], 6.28 µM; in [4], 3.21 µM; in experiment [5], 10.7 µM; in [6] it was 3.36 µM. Besides, the TGI was 2.82 µM in experiment [7], 1.94 µM in [8], greater than 22.9 µM in experiment [9] and 3.45 µM in experiment [10].

For `COC(=O)c1c2c(c(C)[n+]([O-])c1C)C(=O)C=C(NCc1ccc(Br)cc1)C2=O`, the GI50 is 0.255 µM in experiment [1]; 1.55 µM in [2]; 1.23 µM in experiment [3]; 0.581 µM in [4]; 0.167 µM in [5]; 1.09 µM in experiment [6]. For the same compound, the GI50 is 1.08 µM in [7], 0.904 µM in experiment [8], 0.669 µM in experiment [9] and 1.52 µM in experiment [10]. Besides, the TGI stood at 1.07 µM in experiment [1]; 4.13 µM in experiment [2]; 2.48 µM in experiment [3]; 1.74 µM in [4]; 1.95 µM in experiment [5]; 2.54 µM in [6]. In addition, the TGI came out at 2.44 µM in experiment [7], 2.3 µM in experiment [8] and 3.41 µM in experiment [10].

Consider `CS(=O)/C(C#N)=C\C=C\c1cccc(Cl)c1` (centres undefined), for which the GI50 in [1] is 0.579 µM; in experiment [2], 4.44 µM; in experiment [3], 1.81 µM; in experiment [4] it was 2.74 µM; in experiment [5], 1.11 µM; in [6], 2 µM. The GI50 in experiment [7] is 1.97 µM; in experiment [8] it was 12.4 µM; in [9], 2.34 µM; in [10], 10.6 µM. For the same compound, the TGI came to 5.72 µM in experiment [1]; 19.1 µM in experiment [2]; 5.54 µM in experiment [3]; 12.2 µM in [4]; 4.04 µM in experiment [5]; 3.9 µM in [6]. Further, the TGI in experiment [7] came to 6.56 µM; in experiment [8] it was 25 µM; in experiment [9] it was 18.7 µM; in experiment [10], 26.4 µM.
